Data on one molecule can be found in patent US9452177B2, “Vitamin D compounds and methods for reducing ocular hypertension (OHT)” (Wisconsin Alumni Research Foundation, priority 2008, dated 2016).

Data set [1] can be described thus: Ocular inflammation by slit-lamp biomicroscopy. Conditions: Example 1; 5 topical treatments, 5 μg (2MD 6 μg). It is filed as in vivo, cynomolgus monkeys (Macaca fascicularis). How it is done: The intraocular pressure (IOP) was determined with a “minified” Goldmann applanation tonometer [Kaufman, 1980] using HALF AND HALF™ creamer solution (Borden) as the tear film indicator [Croft, 1997] with the monkey lying prone in a head holder and the eyes positioned 4 to 8 cm above the heart. All monkeys were examined by slit-lamp before the first IOP measurement in each protocol. For each eye, two or three IOP measurements were averaged as a baseline.
On the 3th day, prior to the 5th treatment, baseline IOP, biomicroscopy and MAP were determined. Preliminary studies indicated an effect was observed after these treatments but not after a single treatment. Following the 5th dose, IOP was measured at 1, 2, 3, 4, 5, 6, 7, 8, 12 (if possible), 24, and sometimes 48 hr. Biomicroscopy was done at 1, 3, 6, 24 and sometimes 48 hr. MAP on day 3 (some protocols) was determined at 1, 2, 3, 4, 5, 6, 7, 8, 24 and sometimes 48 hr if possible. Blood samples after the 5th treatment were collected at 6, 24, and sometimes 48 hr. For some protocols, IOP was also measured prior to each treatment; MAP was measured prior to the morning treatment; blood was collected prior to the afternoon treatment. Subsequent screening protocols will not include the MAP and blood collections and will only measure IOP at baseline and prior to and for 1-6 hr after the 5th treatment.
Baseline pretreatment IOP was determined by Goldmann applanation tonometry [Kaufman, 1980] with […] used as a tear film indicator [Croft, 1997]. Two baseline IOP measurements were taken 5 minutes apart. Monkeys were then treated topically with 5 μl of 1,25-dihydroxyvitamin D3 (1,25-(OH)2D3) (0.1-5 μg) to one eye and vehicle (propylene glycol) to the opposite eye twice a day for 5 treatments total. […] IOP was also measured prior to the afternoon treatment. On the third day, IOP was measured prior to the morning treatment. Following the fifth treatment, IOP was measured hourly for 8 hours and, in some cases, also at 12, 24, and 48 hours. […]

Data set [2] relates to genes known to be involved in the regulation of IOP. In words: Rat intestine and mouse calvarial cell microarrays (gene expression). The protocol: Vitamin D-deficient rats were given one bolus intravenous dose of 730 ng of 1,25-(OH)2D3/kg of body weight in ethanol or ethanol vehicle (control). Rats were anesthetized with isofluorane and decapitated 1, 3, 6, 10 and 24 h after injection of the dose or vehicle. There were three rats in each group for each time point. Blood was collected at the same time for determination of changes in serum calcium concentration. For each rat, the first 15 cm of intestine (duodenum) was removed, slit longitudinally and scraped with a glass slide. The mucosa was placed in a vial with GTC extraction buffer supplemented with 2% of β-mercaptoethanol (PolyATtract System 1000, Promega Corp., Madison, Wis.), homogenized at high speed with PowerGen 700 (Fisher Scientific, Pittsburgh, Pa.), flash frozen in liquid N2 and stored at −80° C. Experiments were done in duplicate.
For each time point, Poly(A+) RNA was isolated from pooled homogenized mucosa of three 1,25-(OH)2D3 or three vehicle treated rats. The mRNA was isolated using the PolyATtract System 1000 (Promega Corp., Madison, Wis.). The mRNA was purified using an RNeasy kit (Qiagen, Chatsworth, Calif.). The quality, integrity and quantity of the Poly(A+) RNA were determined by agarose gel electrophoresis, UV absorption spectrophotometry and the use of Agilent Bioanalyser 2100 (Agilent Technologies, Palo Alto, Calif.).
Primary fetal mouse calvarial cells were isolated and cultured in αMEM containing 10% FBS as described [Shevde, 2002]. Cells were plated in the 2×6-well plates (5×10^5 cells/well) and cultured with medium changes performed on days 1 and 4. On day 4 cells on 1 plate were treated with 1,25(OH)2D3 (10 nM final concentration). Second plate was used as the control. After 24 h of incubation with 1,25(OH)2D3, cells were harvested and total RNA was isolated with Trizol reagent (Invitrogen Life Technologies, Carlsbad, Calif.). The mRNA was further purified using an RNeasy kit (Qiagen, Chatsworth, Calif.). The quality, integrity and quantity of the total RNA were assessed by agarose gel electrophoresis and UV absorption spectrophotometry. Experiments were done in triplicates. […]
The hybridization reaction and the automated hybridization procedure were performed by the Gene Expression Center at the Biotechnology Center at the University of Wisconsin-Madison as described (Kutuzova, 2004). Each probe was tested on an Affymetrix Test3 Array and the quality of the cDNA and cRNA was determined by a 3′/5′ ratio of housekeeping genes within the array (ubiquitin, rat glyceraldehyde 3-phosphate dehydrogenase, β-actin, and hexokinase). […] Expression data were analyzed using the Affymetrix Microarrray Suite software version 5.0 (MAS 5.0). […]

Setting [3] is: rat 730 ng/kg i.v., mouse calvarial cells 10 nM, 24 h.

Take `C=C1/C(=C\C=C2/CCC[C@]3(C)[C@@H]([C@H](C)CCCC(C)(C)O)CC[C@@H]23)C[C@@H](O)C[C@@H]1O` [1,25-(OH)2D3, 1α,25-dihydroxyvitamin D3]: the ocular inflammation result in data set [1] was “no ocular inflammation at any time-point”. Also, the “expression of vasoactive intestinal peptide, topoisomerase I, MMP2” value in data set [2] (data not shown) is “decreased expression”. Also, in data set [2] (setting [3]), the “expression of ACTG2, ATP1A1, AQP1, CEACAM, FN1, CD44 and TIMP3” value is “Significantly down-regulated”; the “expression of PTGER4, MMP3, MMP11 and MMP13” value is “Significant increases”; the “mRNA expression for carbonic anhydrase I (CAI), angiotensin I converting enzyme (ACE) and actin alpha (ACTA1)” value is on record as “strong reductions”.
